Test results from patent publication US7829567B2, “Imino-indeno[1,2-c] quinoline derivatives, their preparation processes, and pharmaceutical compositions comprising the same” (Kaohsiung Medical University, priority 2007, dated 2010).
Counter-ions that a name gives are not always drawn. Like-named read-outs stand apart in the source and are kept apart here.

Tests used:
[1] = test system: human cervical epithelioid carcinoma (HeLa); test: In vitro anticancer assay (MTT), HeLa; assay type: cell-based; conditions: HeLa cells, 48 hrs, mean ± spread, read-out: Anti-proliferative evaluation IC50, HeLa
Description: (§1) The resultant tetrazolium salt was then dissolved by the addition of dimethyl sulfoxide. Color was measured spectrophotometrically in a microtiter plate reader at 570 nm and used as a relative measure of viable cell number. The number of viable cells after treatment was compared to solvent and untreated control cells and used to determine the percent of control growth as (Abtreated/Abcontrol)×100, where Ab represents the mean absorbance (n=3). […] D. Heo et al. […] (+)-camptothecin (CPT) and doxorubicin hydrochloride (Dox) were used for comparison with the compounds according to this invention.

[2] = test system: hepatocellular carcinoma (SKHep1); test: In vitro anticancer assay (MTT), SKHep1; assay type: cell-based; conditions: 48 hrs, mean ± spread, read-out: Anti-proliferative evaluation IC50, SKHep1
Description: as §1

[3] = test system: oral squamous cell carcinoma (SAS); test: In vitro anticancer assay (MTT), SAS; assay type: cell-based; conditions: SAS cells, 48 hrs, mean ± spread, read-out: Anti-proliferative evaluation IC50, SAS
Description: as §1

[4] = test system: esophageal carcinoma (CE81T); test: In vitro anticancer assay (MTT), CE81T; assay type: cell-based; conditions: CE81T cells, 48 hrs, mean ± spread, read-out: Anti-proliferative evaluation IC50, CE81T
Description: as §1

[5] = test system: human renal clear cell carcinoma; test: In vitro anticancer assay (MTT), RCC 768-O; assay type: cell-based; conditions: RCC 768-O cells, 48 hrs, mean ± spread, read-out: Anti-proliferative evaluation IC50, RCC 768-O
Description: as §1

[6] = test system: human stomach adenocarcinoma (AGS); test: In vitro anticancer assay (MTT), AGS; assay type: cell-based; conditions: AGS cells, 48 hrs, mean ± spread, read-out: Anti-proliferative evaluation IC50, AGS
Description: as §1

[7] = Homo sapiens, SK-HEP1, SKHep1 cells

melting point	IC50 ([1]; Homo sapiens)	IC50 [2, 7]	IC50 [3]	IC50 [4]	IC50 ([5]; Homo sapiens)	IC50 ([6]; Homo sapiens)	Compound	IC50 [1]	IC50 ([2]; SKHep1 cells)	IC50 [5]	IC50 [6]
149 to 150 °C	–	–	–	–	–	–	CON=C1c2ccccc2-c2c(N3CCNCC3)nc3ccccc3c21 (as salt: salt) [Compound 6j, 6-(Piperazin-1-yl)-11H-indeno[1,2-c]quinolin-11-one O-methyl oxime]	–	–	–	–
148 to 149 °C	2.4 ± 1.2 µM	3.8 ± 1.8 µM	6.6 ± 0.9 µM	4.1 ± 3.3 µM	7.1 ± 0.6 µM	7.9 ± 1.5 µM	CN(C)CCNc1nc2ccccc2c2c1-c1ccccc1C2=O [Compound 5a, 6-(2-(Dimethylamino)ethylamino)-11H-indeno[1,2-c]quinolin-11-one]	–	–	–	–
195 to 196 °C	–	–	–	–	–	–	COc1ccc2c(c1)C(=O)c1c-2cnc2ccccc12 [Compound 5d, 9-Methoxy-11H-indeno[1,2-c]quinolin-11-one]	–	–	–	–
316 to 317 °C	–	–	–	–	–	–	COc1ccc2c(c1)C(=O)c1c-2c(O)nc2ccccc12 [Compound 5e, 6-Hydroxy-9-methoxy-11H-indeno[1,2-c]quinolin-11-one]	–	–	–	–
162 to 163 °C	–	–	–	–	–	–	COc1ccc2c(c1)C(=O)c1c-2c(N2CCN(C(=O)CCCl)CC2)nc2ccccc12 [Compound 5hh, 6-[4-(3-Chloropropanoyl)piperazin-1-yl]-9-methoxy-11H-indeno[1,2-c]quinolin-11-one]	–	–	–	–
270 to 271 °C	–	–	–	–	–	–	COc1ccc2c(c1)C(=NO)c1c-2cnc2ccccc12 [Compound 6a, 9-Methoxy-11H-indeno[1,2-c]quinolin-11-one oxime]	–	–	–	–
–	0.9 ± 0.4 µM	3 ± 2.2 µM	6.3 ± 0.9 µM	6.5 ± 0.6 µM	4.4 ± 1.4 µM	5.9 ± 1.2 µM	COc1ccc2c(c1)C(=NOCCCN)c1c-2c(N2CCNCC2)nc2ccccc12 [Compound 6t, 9-Methoxy-6-(piperazin-1-yl)-11H-indeno[1,2-c]quinolin-11-one O-3-aminopropyl oxime]	–	–	–	–
–	0.6 ± 0.2 µM	0.7 ± 0.3 µM	2.4 ± 1.3 µM	2.9 ± 1.7 µM	2.6 ± 0.5 µM	4.8 ± 1.3 µM	COc1ccc2c(c1)C(=NOCCN1CCCC1)c1c-2c(N2CCNCC2)nc2ccccc12 [Compound 6u, 9-Methoxy-6-(piperazin-1-yl)-11H-indeno[1,2-c]quinolin-11-one O-2-(pyrrolidin-1-yl)ethyl oxime]	–	–	–	–
–	0.8 ± 0.3 µM	1.6 ± 0.5 µM	5.8 ± 0.5 µM	> 30 µM	4.5 ± 1.4 µM	7.1 ± 0.8 µM	COc1ccc2c(c1)C(=NOCCN1CCCCC1)c1c-2c(N2CCNCC2)nc2ccccc12 [Compound 6v, 9-Methoxy-6-(piperazin-1-yl)-11H-indeno[1,2-c]quinolin-11-one O-2-(piperidin-1-yl)ethyl oxime]	–	–	–	–
–	–	–	6.9 ± 1.3 µM	> 30 µM	–	–	COc1ccc2c(c1)C(=NOCCN1CCOCC1)c1c-2c(N2CCNCC2)nc2ccccc12 [Compound 6w]	0.8 ± 0.2 µM	1 ± 0.4 µM	4.1 ± 1.9 µM	5.8 ± 1.9 µM
–	–	–	9 ± 2.7 µM	9 ± 3.6 µM	–	–	COc1ccc2c(c1)C(=NOCC(O)CN(C)C)c1c-2c(N2CCN(CC(O)CN(C)C)CC2)nc2ccccc12 (stereo not drawn) [Compound 6z]	1 ± 0.4 µM	2.5 ± 1.7 µM	13.9 ± 10.5 µM	18.6 ± 6.2 µM
–	0.4 ± 0.1 µM	< 0.1 µM	5.7 ± 0.3 µM	0.3 ± 0.1 µM	2.2 ± 0.3 µM	> 30 µM	COc1cccc2c1C(=O)c1c(O)c3c(c(O)c1C2=O)C[C@@](O)(C(=O)CO)C[C@@H]3O[C@H]1C[C@H](N)[C@H](O)[C@H](C)O1 [Dox, doxorubicin hydrochloride, reference compound]	–	–	–	–

Compound	melting point	IC50 ([1]; Homo sapiens)	IC50 [2, 7]	IC50 [3]	IC50 [4]	IC50 ([5]; Homo sapiens)	IC50 ([6]; Homo sapiens)	IC50 [1]	IC50 ([2]; SKHep1 cells)	IC50 [5]	IC50 [6]
COc1ccc2c(c1)C(=NOCc1ccccc1)c1c-2c(N2CCNCC2)nc2ccccc12 [Compound 6x]	–	–	–	7.6 ± 0.6 µM	3.4 ± 2.3 µM	–	–	6.1 ± 0.3 µM	4.2 ± 1.8 µM	7 ± 0.4 µM	6.1 ± 1.4 µM
COc1ccc2c(c1)C(=NOCC1CO1)c1c-2c(N2CCN(CC3CO3)CC2)nc2ccccc12 (stereo not drawn) [Compound 6y]	–	–	–	6.2 ± 0.9 µM	2 ± 1.2 µM	–	–	0.5 ± 0.2 µM	1 ± 0.5 µM	8.8 ± 2.2 µM	8.8 ± 4.1 µM
